Converted amounts (≈) assume the structure as drawn. *1 amine or outer side, *2 acyl side, *3 side chain or, on linkers, in order; H or OH if unused. Where a SMILES comes first, the peptide text is derived from it. Bridges are numbered along the chain shown (N, C = ends). Roman numbers before positions name the chains, in order. [ ]: non-standard residue; d: D form. Actinocin(1to9) = Cc1c2oc3c(C)ccc(C(=O)[*:2])c3nc-2c(C(=O)[*:1])c(N)c1=O; NMeV = CN[C@H](C(=O)O)C(C)C; Sar = CNCC(=O)O
Experiments:
Bacillus subtilis [1] = assay: Antibacterial activity against Bacillus subtilis ATCC […] incubated for 16 hrs; format: functional
Bacillus subtilis [2] = assay: Antibacterial activity against Bacillus subtilis CMCC63501; format: functional
[3] = test system: Mycobacterium tuberculosis; assay: Antibacterial activity against Mycobacterium tuberculosis H37Rv ATCC 27294 incubated […]; format: functional
Enterococcus [4] = assay: Antibacterial activity against Enterococcus VRE-WMC by CLSI method; format: functional
Staphylococcus aureus [5] = assay: Antibacterial activity against methicillin-resistant Staphylococcus aureus by CLSI method; format: functional
Pseudomonas aeruginosa [6] = assay: Antibacterial activity against Pseudomonas aeruginosa ATCC 27853 by CLSI method; format: functional
Moraxella catarrhalis = assay: Antibacterial activity against Moraxella catarrhalis ATCC 25238 by CLSI method; format: functional
Clostridioides difficile = assay: Antibacterial activity against Clostridioides difficile BI/NAP1/O27 by agar dilution method; format: functional
Enterococcus [7] = assay: Antibacterial activity against Enterococcus VRE-CUS by CLSI method; format: functional
Escherichia coli [8] = assay: Antibacterial activity against Escherichia coli by CLSI method; format: functional
Enterococcus faecium [9] = assay: Antibacterial activity against Enterococcus faecium CCUG 37832 incubated for 18 hrs by WST1 assay; format: functional; settings: CCUG 37832, 18 h
Enterococcus faecium [10] = assay: Antibacterial activity against Enterococcus faecium CTC 492 incubated for 18 hrs by WST1 assay; format: functional; settings: CTC 492, 18 h
Staphylococcus aureus [11] = assay: Antibacterial activity against Staphylococcus aureus ATCC 29213; format: functional
Pseudomonas aeruginosa [12] = assay: Antibacterial activity against Pseudomonas aeruginosa incubated for 24 hrs by standard broth dilution assay; format: functional
Escherichia coli [13] = assay: Antibacterial activity against Escherichia coli incubated for 24 hrs by standard broth dilution assay; format: functional
Bacillus subtilis [14] = assay: Antibacterial activity against Bacillus subtilis incubated for 24 hrs by standard broth dilution assay; format: functional
Staphylococcus aureus [15] = assay: Antibacterial activity against Staphylococcus aureus incubated for 24 hrs by standard broth dilution assay; format: functional
Bacillus subtilis [16] = assay: Antibacterial activity against Bacillus subtilis 769 measured after overnight incubation by microdilution method; format: functional
Staphylococcus aureus [17] = assay: Antibacterial activity against methicillin-resistant Staphylococcus aureus ATCC 43300 measured after overnight incubation by microdilution method; format: functional
[18] = test system: Staphylococcus haemolyticus; assay: Antibacterial activity against Staphylococcus haemolyticus UST950701-004 measured after overnight incubation by microdilution method; format: functional
Staphylococcus aureus [19] = assay: Antibacterial activity against Staphylococcus aureus UST950701-005 measured after overnight incubation by microdilution method; format: functional
[20] = test system: Staphylococcus epidermidis; assay: Antibacterial activity against Staphylococcus epidermidis DSM 20044 incubated for 5 hrs by resazurin dye reduction based assay; format: functional, organism-based; settings: DSM 20044, 5 h
Bacillus subtilis [21] = assay: Antibacterial activity against Bacillus subtilis DSM 347 incubated for 5 hrs by resazurin dye reduction based assay; format: functional, organism-based; settings: DSM 347, 5 h
Escherichia coli [22] = assay: Antibacterial activity against drug-resistant Escherichia coli by broth microdilution method; format: functional
Escherichia coli [23] = assay: Antibacterial activity against Escherichia coli ATCC 25922 by broth microdilution method; format: functional
Staphylococcus aureus [24] = assay: Antibacterial activity against Staphylococcus aureus ATCC 25925 by broth microdilution method; format: functional
Bacillus subtilis [25] = assay: Antibacterial activity against Bacillus subtilis ATCC 63501 by broth microdilution method; format: functional
Pseudomonas aeruginosa [26] = assay: Antibacterial activity against Pseudomonas aeruginosa ATCC 25916 by broth microdilution method; format: functional
Staphylococcus aureus [27] = assay: Antibacterial activity against drug-resistant Staphylococcus aureus by broth microdilution method; format: functional
[28] = test system: Mycobacterium tuberculosis; assay: Antibacterial activity against Mycobacterium tuberculosis H37Rv ATCC 27294 incubated for 10 days by GFP based fluorescence assay; format: functional; settings: H37Rv ATCC 27294, 240 h

Work on `COC(=O)N[C@H]1[C@@H](C)O[C@@H](O[C@H]2C/C=C(\C)[C@@H]3C=C[C@@H]4[C@@H](O[C@H]5C[C@@H](O[C@H]6C[C@@H](O)[C@@H](O[C@@H]7C[C@@H](O)[C@@H](OC)[C@H](C)O7)[C@H](C)O6)[C@@H](O)[C@H](C)O5)[C@@H](C)C[C@H](C)[C@H]4[C@]3(C)C(=O)C3=C(O)[C@@]4(C[C@@H](C)C(CO)=C[C@H]4/C=C/2C)OC3=O)C[C@]1(C)[N+](=O)[O-]` yielded an MIC (Bacillus subtilis [1]) of 1.5 to 12 µg/mL (≈ 1.26 to 10.1 µM), an MIC (Bacillus subtilis [2]) of 1.6 to 3.1 µg/mL (≈ 1.35 to 2.61 µM) and an MIC [3] of 16 to 32 µg/mL (≈ 13.5 to 27 µM).
`C=C(NC(=O)c1csc(-c2nc3c(cc2O)-c2nc(cs2)C(=O)N[C@@H]([C@@H](C)O)C(=O)N/C(=C/C)c2nc(cs2)C(=O)N[C@H]2C[C@H](O)C(=O)OCc4cccc5[nH]c(c(C)c45)C(=O)SC[C@H](NC(=O)c4csc2n4)c2nc-3cs2)n1)C(N)=O` was tested, and the MIC (Enterococcus [4]) was 0.12 µg/mL (≈ 0.0982 µM), the MIC (Staphylococcus aureus [5]) was 0.03 to 0.25 µg/mL (≈ 0.0245 to 0.205 µM) and the MIC (Pseudomonas aeruginosa [6]) was greater than 4 µg/mL. The MIC (Moraxella catarrhalis) was 0.5 µg/mL (≈ 0.409 µM), the MIC (Clostridioides difficile) was 0.01 µg/mL (≈ 0.00818 µM) and the MIC (Enterococcus [7]) was 0.12 µg/mL (≈ 0.0982 µM). For the same compound, the MIC (Escherichia coli [8]) was greater than 4 µg/mL.
With `[O-][n+]1c2cccc(O)c2[n+]([O-])c2cccc(O)c21` the MIC (Enterococcus faecium [9]) was 0.7 µg/mL (≈ 2.87 µM) and the MIC (Enterococcus faecium [10]) was 0.35 µg/mL (≈ 1.43 µM).
`COC(=O)N[C@H]1[C@@H](C)O[C@@H](O[C@H]2C/C=C(\C)[C@@H]3C=C[C@@H]4[C@@H](O[C@H]5C[C@@H](O[C@H]6C[C@@H](O)[C@@H](O[C@@H]7C[C@@H](O)[C@@H](OC)[C@H](C)O7)[C@H](C)O6)[C@@H](O)[C@H](C)O5)[C@@H](C)C[C@H](C)[C@H]4[C@]3(C)C(=O)C3=C(O)[C@@]4(C[C@@H](C)C(C=O)=C[C@H]4/C=C/2C)OC3=O)C[C@]1(C)[N+](=O)[O-]` gave an MIC (Staphylococcus aureus [11]) of 6.2 to 50 µg/mL (≈ 5.23 to 42.2 µM) and an MIC (Bacillus subtilis [2]) of 1.6 to 3.1 µg/mL (≈ 1.35 to 2.62 µM).
`COC(=O)N[C@H]1[C@@H](C)O[C@@H](O[C@H]2C/C=C(\C)[C@@H]3C=C[C@@H]4[C@@H](O[C@H]5C[C@@H](O[C@H]6C[C@@H](O)[C@@H](O[C@@H]7C[C@@H](O)[C@@H](OC)[C@H](C)O7)[C@H](C)O6)[C@@H](O)[C@H](C)O5)[C@@H](C)C[C@H](C)[C@H]4[C@]3(C)C(=O)C3=C(O)[C@@]4(C[C@@H](C)C(CO)=C[C@H]4/C=C/2C)OC3=O)C[C@]1(C)N` gave an MIC (Bacillus subtilis [1]) of 1.5 to 12 µg/mL (≈ 1.3 to 10.4 µM) and an MIC [3] of 16 to 32 µg/mL (≈ 13.8 to 27.6 µM).
Work on `CC1(C)S[C@@H]2[C@H](NC(=O)[C@H](N)c3ccccc3)C(=O)N2[C@H]1C(=O)O` [AMPICILLIN] yielded an MIC (Bacillus subtilis [2]) of 1.6 to 3.1 µg/mL (≈ 4.58 to 8.87 µM).
Compound `C[C@@H]1CCC/C=C/[C@@H]2O[C@H](C[C@@H](O)C/C=C\C=C\[C@H](O[C@@H]3O[C@H](CO)[C@@H](O)[C@H](O)[C@H]3O)C/C=C/C=C\C(=O)O1)[C@H]2O` has an MIC (Pseudomonas aeruginosa [12]) of 0.02 to 0.13 µg/mL (≈ 0.0344 to 0.224 µM), an MIC (Escherichia coli [13]) of 0.02 to 0.13 µg/mL (≈ 0.0344 to 0.224 µM) and an MIC (Bacillus subtilis [14]) of 0.02 to 0.13 µg/mL (≈ 0.0344 to 0.224 µM). It also gave an MIC (Staphylococcus aureus [15]) of 0.02 to 0.13 µg/mL (≈ 0.0344 to 0.224 µM).
In the case of `COc1ccc2oc3c4c(c(O)c(O)c3c(=O)c2c1O)CCc1cc2c(c(O)c1-4)C(=O)N1[C@@](C)(CO)C(=O)O[C@@]1(C)C2`, the MIC (Bacillus subtilis [16]) is reported as no more than 1 µg/mL, the MIC (Staphylococcus aureus [17]) is reported as no more than 1 µg/mL and the MIC [18] is reported as no more than 1 µg/mL. For the same compound, the MIC (Staphylococcus aureus [19]) was no more than 1 µg/mL.
With `CCC(C)CCC[C@H](C(=O)OC)[C@@H](O)c1cccc2nc3c(C(=O)O)cccc3nc12` (stereo not given in full) the IC50 [20] was 6.1 µg/mL (≈ 14.4 µM) and the IC50 (Bacillus subtilis [21]) was 9.1 µg/mL (≈ 21.4 µM).
`C[C@@H]1C/C=C2\SC[C@@H](NC(=O)c3coc(n3)C[C@@H](O)C[C@H](O)/C=C/C=C/CNC2=O)C(=O)O1` showed an MIC (Escherichia coli [22]) of 32 µg/mL (≈ 67 µM), an MIC (Escherichia coli [23]) of 32 µg/mL (≈ 67 µM) and an MIC (Staphylococcus aureus [24]) of 8 to 16 µg/mL (≈ 16.8 to 33.5 µM). It also gave an MIC (Bacillus subtilis [25]) of 8 to 16 µg/mL (≈ 16.8 to 33.5 µM), an MIC (Pseudomonas aeruginosa [26]) of 32 µg/mL (≈ 67 µM) and an MIC (Staphylococcus aureus [27]) of 8 to 16 µg/mL (≈ 16.8 to 33.5 µM).
With `Cc1c2oc3c(C)ccc(C(=O)N[C@@H]4C(=O)N[C@H](C(C)C)C(=O)N5CCC[C@H]5C(=O)N(C)CC(=O)N(C)[C@@H](C(C)C)C(=O)O[C@@H]4C)c3nc-2c(C(=O)N[C@@H]2C(=O)N[C@H](C(C)C)C(=O)N3CCC[C@H]3C(=O)N(C)CC(=O)N(C)[C@@H](C(C)C)C(=O)O[C@@H]2C)c(N)c1=O` [DACTINOMYCIN] (I: T[dV]P[Sar][NMeV] / II: T[dV]P[Sar][NMeV]; ester I:1-I:C, II:1-II:C; linker I:N-II:N via Actinocin(1to9)) the MIC [28] was 1 to 8 µg/mL (≈ 0.797 to 6.37 µM).
Work on `Cc1c2oc3c(C)ccc(C(=O)N[C@@H]4C(=O)N[C@H](C(C)C)C(=O)N5CCC[C@H]5C(=O)N(C)CC(=O)N(C)[C@@H](C(C)C)C(=O)O[C@@H]4C)c3nc-2c(C(=O)N[C@@H]2C(=O)N[C@H](C(C)C)C(=O)N3CC(O)C[C@H]3C(=O)N(C)CC(=O)N(C)[C@@H](C(C)C)C(=O)O[C@@H]2C)c(N)c1=O` (stereo not given in full) yielded an MIC [28] of 1 to 8 µg/mL (≈ 0.787 to 6.29 µM).
